Converted amounts (≈) assume the structure as drawn.
What was measured:
Staphylococcus aureus = assay: Inhibitory concentration required against cell wall synthesis in Staphylococcus aureus (MI246); type: functional, organism-based
[1] = Solubility at pH 7.4; type: physicochemical; conditions: buffer
Bacteria = assay: Minimum inhibitory concentration required against six gram-positive organisms (G+6); type: functional

IC50 (Staphylococcus aureus) [µM] | solubility [1] [µg/mL] | MIC (Bacteria) [µM] | Compound
47 | 2 (≈ 4.62 µM) | 4 (≈ 1.73 µg/mL) | O=C(NNc1nccc(C(F)(F)F)n1)Nc1cc(C(F)(F)F)cc(C(F)(F)F)c1
135 | 5 (≈ 14 µM) | 68 (≈ 24.3 µg/mL) | O=C(Nc1cc(C(F)(F)F)cc(C(F)(F)F)c1)NN1CCOCC1
236 | 53 (≈ 156 µM) | 198 (≈ 67.2 µg/mL) | O=C(Nc1cc(C(F)(F)F)cc(C(F)(F)F)c1)Nn1cnnc1
17 | < 0.5 | 3 (≈ 1.63 µg/mL) | O=C(NNC(=O)Nc1cc(C(F)(F)F)cc(C(F)(F)F)c1)Nc1cc(C(F)(F)F)cc(C(F)(F)F)c1
145 | – | 2 (≈ 0.949 µg/mL) | O=C(NNC(=O)Nc1cc(C(F)(F)F)cc(C(F)(F)F)c1)Nc1ccc(C(F)(F)F)cc1
167 | – | > 300 | O=C(Nc1cc(C(F)(F)F)cc(C(F)(F)F)c1)NN1CCN(CCO)CC1
44 | 6 (≈ 15.4 µM) | 10 (≈ 3.9 µg/mL) | CC(C)c1nc2ccccc2c(=O)n1NC(=O)Nc1ccc(C(F)(F)F)cc1
36 | 59 (≈ 133 µM) | 7 (≈ 3.11 µg/mL) | CCc1nc2ccccc2c(=O)n1NC(=O)Nc1cc(C(F)(F)F)cc(C(F)(F)F)c1
66 | 3 (≈ 6.55 µM) | 1.5 (≈ 0.688 µg/mL) | CC(C)c1nc2ccccc2c(=O)n1NC(=O)Nc1cc(C(F)(F)F)cc(C(F)(F)F)c1

Compound | IC50 (Staphylococcus aureus) [µM] | solubility [1] [µg/mL] | MIC (Bacteria) [µM]
CN[C@H](CC(C)C)C(=O)N[C@H]1C(=O)N[C@@H](CC(N)=O)C(=O)N[C@H]2C(=O)N[C@H]3C(=O)N[C@H](C(=O)N[C@H](C(=O)O)c4cc(O)cc(O)c4-c4cc3ccc4O)[C@H](O)c3ccc(c(Cl)c3)Oc3cc2cc(c3O[C@@H]2O[C@H](CO)[C@@H](O)[C@H](O)[C@H]2O[C@H]2C[C@](C)(N)[C@H](O)[C@H](C)O2)Oc2ccc(cc2Cl)[C@H]1O [VANCOMYCIN] | 0.4 | – | 0.3 (≈ 0.435 µg/mL)
